Columns and labels:
[1] = mouse, in vivo
Procedure: Direct current plasma-atomic emission spectroscopy [DCP-AES] (ARL/Fisons Model SS-7) was used (detection limit: 0.1 μg B/mL) to determine boron concentrations in tissues of individual mice. Samples (50-130 mg) were digested at 60° C. with sulfuric acid:nitric acid (1:1). Triton X-100 and water were added to give final concentrations of ˜50 mg tissue/mL, 15% total acid v/v and 5% Triton X-100 v/v. […] It is known that the ether linkages between the porphyrin and carborane cages remain intact in vivo.

[2] = tested on: SCCVII squamous cell carcinomas
Procedure: Mice were euthanized when the tumour volume reached 500 mm^3; and
SCCVII murine squamous cell carcinoma cells were cultured in D-MEM enriched with 10% fetal bovine serum, 1% penicillin/streptomycin and 1% L-glutamine. Only passages 1-3 were used to initiate tumours. Cells (2×10^5 in 0.05 mL of medium) were then implanted sc into the left thighs of 20-25 g female C3H mice (Charles River Laboratories, Wilmington, Mass.).
Due to the large number of animals to be dosed and irradiated, it was necessary to split the animals into two equally sized groups: Groups A and B. Animals in each Group A were injected on day 7 after tumour implantation, while animals in each Group B were injected on day 8 post tumour implantation.
The animals in Group A were irradiated 8 days, and those in Groups B were irradiated 9 days after tumour implantation. Mice were anesthetized (sodium pentobarbital, ˜60 μg/g i.p.) and positioned for irradiation with the tumour-bearing leg extended across a 2-cm diameter collimated irradiation port. Tumours were irradiated using a single dose fraction of 32 gy at a dose-rate of 2.0 Gy/min using a Philips RT-100 set, operating at 100 kVp and 8 mA.
Tumours were measured 2-3 times per week and the mice were killed humanely when the calculated tumour volume (x^2y/2, where x is the shorter surface dimension) exceeded 500 mm^3.
Dosimetry for X-irradiation was carried out using a thimble ionization chamber applying the 1996 IPEB code of practice.

[3] = 150 mg/kg MTL005 + 32 Gy vs 32 Gy alone
[4] = 150 mg/kg MTL005 i.p. one day prior to 32 Gy X-rays, 11 mice

Substance: copper meso-5,15-bis[3-[(1,2-dicarba-closo-dodecaboranyl)methoxy]phenyl]-meso-10,20-dinitroporphyrin [MTL005]
- Retention of active sensitiser in the tumour after single administration [1]: still a significant concentration of active sensitiser in the tumour
- Number of surviving mice compared with X-rays alone [2, 3]: higher
- Tumour control compared with X-rays alone (Kaplan-Meier, FIG. 2) [2, 3]: greater tumour control
- % Tumour control [2, 4]: 54.5%
- Controlled tumours (volume of 0 mm^3), number of mice [2, 4]: 6
- Mice alive at 62 days with observable tumours [2, 4]: 2
- Number of controlled tumours compared to radiation alone ([2]; 32 Gy): doubled

Source: patent publication US9750809B2, “Cancer treatment” (MOREX DEVELOPMENT PARTNERS LLP, priority 2012, dated 2017)
